This is an account of results in PubChem BioAssay AID488795 (NMMLSC, 2010).

SMILES strings stand for the structures. Calls of active or inactive are those of the source. The rule behind the calls is not given here.

The target in the assay is Vacuolar aminopeptidase 1 (Saccharomyces cerevisiae (strain ATCC 204508 / S288c)) (UniProt P14904). The experiment in a line: LAP4-GFP modulation potency, analog set, SAR follow-up, cell-based, KU SAR set, flow cytometry (AID 488795). The following applies: S. cerevisiae Lap4-GFP reporter, flow cytometry MCF. (In general: In flow cytometry, cells or beads pass a laser one at a time.)
Vacuolar aminopeptidase 1 (Saccharomyces cerevisiae (strain ATCC 204508 / S288c)), sequence (P14904 whole entry, looked up): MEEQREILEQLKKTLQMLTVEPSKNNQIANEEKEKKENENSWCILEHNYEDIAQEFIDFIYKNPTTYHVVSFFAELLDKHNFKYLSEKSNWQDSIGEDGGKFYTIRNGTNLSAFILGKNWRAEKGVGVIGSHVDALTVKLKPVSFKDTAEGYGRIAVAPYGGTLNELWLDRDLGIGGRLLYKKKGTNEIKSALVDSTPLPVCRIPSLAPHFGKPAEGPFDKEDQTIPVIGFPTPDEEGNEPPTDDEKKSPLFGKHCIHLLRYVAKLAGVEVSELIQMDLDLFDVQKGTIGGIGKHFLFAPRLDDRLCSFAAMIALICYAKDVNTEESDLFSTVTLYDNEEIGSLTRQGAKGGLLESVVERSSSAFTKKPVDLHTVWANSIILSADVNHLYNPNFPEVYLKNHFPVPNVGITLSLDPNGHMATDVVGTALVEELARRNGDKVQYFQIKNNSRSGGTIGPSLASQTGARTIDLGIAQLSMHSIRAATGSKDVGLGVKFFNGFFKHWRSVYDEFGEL
In general, EC50 refers to the concentration at which the effect is half-maximal. As for `CSC1=NS(=O)(=O)c2c(C)nn(C)c2S1`, the EC50 result was “inactive”. Under `Clc1ccc(N=c2ssnc2Cl)cc1` stands 3.73 µM. In the case of `CC(C)(C)C(=O)C(Cl)C(=O)Nc1ccccc1` (centres undefined), the EC50 was 6.93 µM. Turning to `O=S(=O)(CCN(CCS(=O)(=O)C(F)(F)F)CC1CCCO1)C(F)(F)F` (centres undefined), the EC50 was 12.5 µM. Under `CNc1nc(N)c([N+](=O)[O-])c(Nc2cccc(F)c2)n1` stands 8.37 µM; under `CCCCC(=O)NNC(=S)NC(=O)c1ccc(C)cc1`, 4.05 µM; under `CCN(CC)C(=O)Oc1ccnc2cc(Cl)ccc12`, “inactive”. On to `O=c1cc(CSc2ccc(Cl)cc2)nc(-c2ccccn2)[nH]1`, for which the EC50 was 1.22 µM. Under `O=C(Nc1nc(-c2ccccn2)cs1)C1COc2ccccc2O1` (centres undefined) stands “inactive”; under `O=c1/c(=C/c2cccc3ccccc23)sc2ncnn12`, 4.36 µM; under `Cc1ccc2nc(Cl)c3nnnn3c2c1`, 4.47 µM. Under `O=C(OCn1ncc(Br)c(Br)c1=O)c1c(F)cccc1F` stands 4.33 µM. Consider `C/C(=N\NC(=O)c1cccc(Br)c1)c1ccccn1`, for which the EC50 entry is “inactive”. Next, `CCOC(=O)CSC1=NC(=O)/C(=C\c2ccc(Cl)cc2)S1`: “inactive”. Under `CCCOc1ccc(C(=O)NNC(=S)NC(=O)CC)cc1` stands 4.38 µM; under `Cc1ccc(S(=O)(=O)c2ncccc2[N+](=O)[O-])cc1`, “inactive”; under `O=C(CCc1ccccc1)NNC(=S)NC(=O)c1ccccc1`, 3.42 µM. Under `Cc1ccc(S(=O)(=O)c2ccc([N+](=O)[O-])cn2)cc1` stands 2.55 µM. For the molecule `O=[N+]([O-])c1ccc(S(=O)(=O)c2cccc(C(F)(F)F)c2)nc1`, the EC50 was 1.94 µM.

Regarding `CN1CCN(C(=O)c2cc(COc3c(F)cccc3F)on2)CC1c1ccccc1` (centres undefined), the EC50 entry was “inactive”. Under `Nc1cc(Nc2cccc(F)c2)nc(NCc2ccccc2)n1` stands “inactive”; under `COc1ccc([N+](=O)[O-])c(S(=O)(=O)c2ccccc2)n1`, 11.9 µM; under `Oc1c(I)cc(I)c2cccnc12`, “inactive”. In the case of `C/C(=N\NC(=O)c1ccc(C(C)(C)C)cc1)c1ccccn1`, the EC50 result is “inactive”. In the case of `CCOC(=O)CCS(=O)(=O)c1nc(-c2ccccc2)cc(C(F)(F)F)n1`, the EC50 was 27.6 µM.

`CCSc1nnc(NC(=O)c2ccccn2)s1`: the EC50 entry was “inactive”. In the case of `O=C(OCn1ncc(Br)c(Br)c1=O)c1ccc(F)cc1`, the EC50 is 4.01 µM. Under `CCOC(=O)CS(=O)(=O)c1nc(-c2ccccc2)cc(C(F)(F)F)n1` stands 6.32 µM; under `COc1ccc([N+](=O)[O-])c(S(=O)(=O)c2ccc(Cl)cc2)n1`, 3.53 µM. Next, `Nc1cc(Oc2cccc(Cl)c2)nc(NCc2ccccc2)n1`: “inactive”. Turning to `O=[N+]([O-])c1cc(S(=O)(=O)C(F)(F)F)ccc1Sc1nc2ccccc2s1`, the EC50 is 14 µM. Under `CCC(C)Nc1nc(N)c([N+](=O)[O-])c(Nc2cccc(F)c2)n1` (centres undefined) stands “inactive”; under `COC(=O)CCS(=O)(=O)c1nc(-c2ccccc2)cc(C(F)(F)F)n1`, 19.9 µM; under `O=[N+]([O-])c1ccc(O)c2ncccc12`, 6.57 µM.
